“Also recorded” adds a separate entry of the source. Where two headings read alike, the source gives them in different places.
Columns and labels:
[1] = system: HT-29 human colon cancer cells; test: MTT cell growth inhibition, HT-29; type: cell-based; conditions: HT-29 cells; for IC50: Homo sapiens
[2] = system: PGE2; test: PGE2 in rat paw exudates; type: in vivo; conditions: for PGE2 levels in the paw exudate versus vehicle (FIG. 2B): P<0.01, four rats in each group
Procedure: Rats were euthanized by asphyxiation in a CO2 chamber. […] The absorbance at 412 nm was measured after 1 h incubation at room temperature. […] Proteins were determined by Biorad assay.
Proteins were determined by Biorad assay.

[3] = system: HT-29 cells; test: LDH release assay; type: cell-based, human
Procedure: For determination of lactate dehydrogenase (LDH) activity, HT-29 cells (1×10^5 cells/well) were incubated in 96-well plates with different concentrations of NOSH-1. After incubation for 2, 4, 8, 12 and 24 h, LDH activity in the supernatant was assessed using the LDH Cytotoxicity Assay Kit (Cayman Chemical Ann Arbor, Mich.), according to the manufacturer's instructions. Cytotoxicity was calculated as a percentage based on the LDH activity released from cells that had been treated with NOSH-1 compared with LDH activity from cultures incubated with Triton X-100. The % of LDH release was determined using the formula (E−C)/(T−C)×100, where E is the experimental absorbance of cell cultures, C is the control absorbance of cell-free culture medium, and T is the absorbance corresponding to the maximal (100%) LDH release of Triton-lysed cells.^1

[4] = system: COX-2; test: Western blot of COX-2 in paw exudates; type: in vivo, rat; conditions: NOSH-1 at 2 doses one hour before carrageenan
Procedure: (§1) Exudates (oedema fluid) and some tissue were homogenized in lysis buffer (0.1% Triton X-100, 50 μM pepstatin, 0.2 mM leupeptin, 1 μg/mL aprotinin, 10 mg/ml phenylmethylsulfonyl fluoride, 50 mM Tris, and 10 mM EDTA). Samples were then centrifuged, and the protein concentration of the supernatant was determined by colorimetric assay (Bio-Rad, Hercules, Calif.). Protein (30 μg) was separated on a 10% polyacrylamide gel and then transferred to a nitrocellulose membrane (Bio-Rad, Hercules, Calif.). Proteins were probed with monoclonal mouse antibody against COX-1 and COX-2 (1:500; Cayman Chemical, Ann Arbor, Mich.). The membrane was then incubated with a goat anti-mouse IgG secondary antibody conjugated to horseradish peroxidase (Santacruz Biotechnology, Santa Cruz, Calif.). A chemiluminescence reagent (Amersham Pittsburg, Pa.) was added to visualize the labeling according to the manufacturer's instructions.

[5] = system: COX-1; test: Western blot of COX-1 in paw exudates; type: in vivo, rat; conditions: NOSH-1 at 2 doses one hour before carrageenan
Procedure: as §1

[6] = system: MIA PaCa2 pancreatic cancer cell xenograft; test: MIA PaCa2 xenograft in athymic nude mice; type: in vivo, mouse
Excerpt: (§2) Male athymic nude (NU/NU) mice, age 5 weeks, were purchased from Charles River Laboratories, Inc., (Wilmington, Mass.) and were housed according to institutional and NIH guidelines.
(§3) Human colon (SW480), Breast (MCF-7, MDA-MB-231), and pancreas (MIA PaCa2) cancer cells (2×10^6) suspended in Matrigel (BD Biosciences, San Jose, Calif.) 50% v/v were inoculated subcutaneously in the right flanks of each mouse (10 mice per group) using a 1-mL syringe and 22-gauge needles. After 10 days the animals from each implanted cell line were randomly divided into 2 groups (N=5/group) and gavaged daily with either vehicle (1% methylcelloluse) or NOSH-naproxen (100 mg/kg) or NOSH (100 mg/kg), the ADT-OH-butyl nitrate compound that releases H2S and NO, in the case of colon cancer xenografts; or NOSH-aspirin (100 mg/kg body weight) in the breast and pancreatic cancers groups. The tumor size was measured every other day using electronic calipers, the tumor volumes were calculated using the following formula: length×width^2/2. The weights of the mice were also recorded every 3 days. Twenty-seven (27) to thirty (30) days post inoculation, the mice were sacrificed, the tumors collected, weighed, and photographed.

[7] = system: LPS-induced fever; test: Anti-pyretic activity, LPS-induced fever; type: in vivo, rat; conditions: 2-4 hours after LPS injection
Procedure: To induce fever, LPS (50 μg/kg, Sigma, St. Louis, Mo., USA) was administered intraperitoneally to the animals an hour before the administration of test drugs as described previously (Pinto L et al., Pharm Pharmacol Communication 1988: 4:502-505). Rectal temperature was measured by inserting a lubricated thermistor probe (external diameter: 3 mm) 2.8 cm into the rectum of the animal. […] Rectal temperatures were taken every hour for 5 hours.

[8] = system: MDA-MB-231 (ER−) breast cancer cell xenograft; test: MDA-MB-231 xenograft in athymic nude mice; type: in vivo, mouse
Excerpt: as §2, §3

[9] = system: SW480 colon cancer cell xenograft; test: SW480 xenograft in athymic nude mice; type: in vivo, mouse
Excerpt: as §2, §3

[10] = 100 mg/kg daily, day 30, vs control

`CC(=O)Oc1ccccc1C(=O)O` [ASA, aspirin, reference compound] was tested. Which IC50 ([1]; 48 h, read-out: IC50, 48 h) did it give?
Its IC50 is 2500 µM.

And the IC50 ([1]; 72 h, read-out: IC50, 72 h)?
Its IC50 is 2000 µM.

And the “PGE2 levels in the paw exudate versus vehicle (FIG. 2B)” value [2]?
Its value is “significant reduction in PGE2 levels”.

And the “PGE2 levels in paw exudate” value ([2]; aspirin 0.21 mmol/kg, control 82±2 pg/mg)?
Its value is 12±3 pg/mg protein.

What does the source list for `O=C(CCCO[N+](=O)[O-])Oc1ccccc1C(=O)Oc1ccc(-c2cc(=S)ss2)cc1` [NOSH-1, 4-(3-thioxo-3H-1,2-dithiol-5-yl)phenyl 2-((4-(nitrooxy)butanoyl)oxy)benzoate]?
LDH release ([3]; 4-times its IC50, 24 hours): less than 10%; LDH release ([3]; 4-times its IC50, shorter durations (2, 4, 6, 8 hours)): 1-5%; LDH release ([3]; at its IC50, shorter durations (2, 4, 6, 8 hours)): 0.5-4%; COX-2 expression in paw exudates induced by carrageenan [4]: inhibited induction; also recorded: dose-dependently inhibited; Potency enhancement (ratio of IC50 values ASA/NOSH-1), 48 h ([1]; 48 h): ~125,000 fold; Potency enhancement (ratio of IC50 values ASA/NOSH-1), 72 h ([1]; 72 h): ~250,000 fold; IC50 ([1]; 48 h, read-out: IC50, 48 h): 0.0197 ± 0.0033 µM; IC50 ([1]; 72 h, read-out: IC50, 72 h): 0.0077 ± 0.0022 µM; COX-1 expression in paw exudates induced by carrageenan [5]: inhibited induction; also recorded: inhibited to the same extent; PGE2 levels in paw exudate ([2]; NOSH-1 0.21 mmol/kg): 42 ± 3 pg/mg; PGE2 levels in paw exudate ([2]; NOSH-1 0.52 mmol/kg): 21 ± 4 pg/mg; PGE2 levels in the paw exudate versus vehicle (FIG. 2B) [2]: significant reduction in PGE2 levels; mean tumor volume ([6]; 100 mg/kg daily gavage, end of study, control 3265±476): 285±117 mm^3; reduction of tumor mass [6, 10]: 75%; average tumor mass ([6]; 100 mg/kg daily, day 30, control 2.45±2.7): 0.61 ± 0.29 g; mean reduction of tumor volume ([6]; 100 mg/kg daily, vs control): 91%; reduction of LPS-induced fever compared with parent NSAID [7]: appeared to be better in reducing LPS-induced fever; mean tumor volume ([8]; 100 mg/kg daily gavage, end of study, control 1886±200): 35±9 mm^3; reduction of tumor mass ([8]; 100 mg/kg daily, day 27, vs control): 91%; average tumor mass ([8]; 100 mg/kg daily, day 27, control 1.2±0.33): 0.11 ± 0.058 g; mean reduction of tumor volume ([8]; 100 mg/kg daily, vs control): 98%

With `CC(C(=O)Oc1ccc(-c2cc(=S)ss2)cc1)c1ccc2cc(OC(=O)CCCO[N+](=O)[O-])ccc2c1` (stereo not drawn) [NOSH-7, 6-(1-oxo-1-(4-(3-thioxo-3H-1,2-dithiol-5-yl)phenoxy)propan-2-yl)naphthalen-2-yl 4-(nitrooxy)butanoate] as the molecule, how does the “reduction of LPS-induced fever compared with parent NSAID” value [7] read?
The value was “appeared to be better in reducing LPS-induced fever”.

What about the mean tumor volume ([9]; 100 mg/kg daily gavage, end of study, control 2098±603) of the same molecule?
The mean tumor volume was 379±73 mm^3.

What about the “reduction of tumor mass” value [9, 10] of the same molecule?
Its value is 55%.

What about the average tumor mass ([9]; 100 mg/kg daily, day 30, control 1.42±0.48) of the same molecule?
Its average tumor mass is 0.63 ± 0.11 g.

And the “mean reduction of tumor volume” value ([9]; 100 mg/kg daily, vs control)?
Its value is 82%.

From patent US10450260B2, “NO- and H2S-releasing compounds” (RESEARCH FOUNDATION OF THE CITY UNIVERSITY OF NEW YORK, priority 2011, dated 2019)
